In paper PMC9917443 (eLife, 2023):

Legend:
GB1a/2 receptors [1] = molecular target: T1, GB1a/2 receptors (Homo sapiens, UniProt O75899+Q9UBS5); assay: PKA luminescence assay (R-RLuc-N / C-RLuc-C) of Gαi signaling in HEK293T cells
GB1a/2 receptors [2] = molecular target: T1, GB1a/2 receptors; assay: inter-subunit FRET conformational sensor (HA-GB1a-ACP / Flag-SNAP-GB2) in HEK293T cells; conditions: for Fig. 2c value, 10mM GABA / Fig. 2c value, Basal: + Vehicle Basal given as 100; for Fig. 2c value, Basal: Basal (no GABA)
GB1a/2 receptors [3] = molecular target: T1, GB1a/2 receptors; assay: Ca^2+ mobilization assay (Calcium 6) in HEK293T cells expressing GB1a/2; assay type: cell-based; design: Flag (N); expressed in transfected cells; host or cells: HEK293T cells stably expressing chimeric Gαqi; conditions: 1 or 10 μM
[4] = tested on: GB1a/2 receptor-induced Kir3 currents in HEK293T cells; assay: Kir3 K^+ currents in transfected HEK293T cells (patch-clamp); assay type: cell-based
[5] = tested on: GB1a/2 receptors in HEK293T cells; assay: APP17-TMR binding / displacement at GB1a/2 receptors in HEK293T cells; conditions: 10 μM peptide
Experimental: Transfected HEK293T cells expressing Flag-GB1a and Flag-GB2 were seeded into 96-well microplates (Greiner Bio-One, Kremsmünster, Austria) at 50,000 cells/well. After 18 hr, peptides were mixed with conditioned medium at the following final concentrations: APP17-TMR (1 µM) with either APP17 (10 µM), sc-APP17 (10 µM), or PBS (vehicle); sc-APP17-TMR (1 µM) in PBS was used as a negative control. After removal of medium, peptide mixes were added to the wells and cells incubated in the dark for 1 hr at room temperature. After removal of the peptides, PBS with MgCl2 and CaCl2 (Sigma-Aldrich) was added to the wells. TMR fluorescence was monitored with a Spark microplate reader (Tecan Group, Männerdorf, Switzerland) using a monochromator (Excitation 544 nm, […] bandwidth; detection […], 25 nm bandwidth). TMR fluorescence was determined after subtraction of the sc-APP17-TMR fluorescence measured at HEK293T cells transfected with pCI plasmid.

[6] = tested on: spontaneous neuronal activity in the auditory cortex; assay: two-photon Ca^2+ imaging of auditory cortex in anesthetized mice; conditions: 5 µM perfused over cortex; peptides 60 min, baclofen 15 min
[7] = tested on: GBR-activated K^+ currents in cultured hippocampal neurons; assay: K^+ currents in cultured hippocampal neurons (patch-clamp); assay type: cell-based, mouse; conditions: for K^+ currents evoked by compound alone (in words): 5 µM, -70 mV
Experimental: APP17 signaling through native GBRs may depend on protein-protein interactions that are not preserved in the membrane preparations used for the [^35S]GTPγS binding assay. Therefore, we tested whether APP17 influences GBR-mediated Gβγ signaling to K^+ channels in cultured hippocampal neurons using patch-clamp electrophysiology, which preserves the native environment of receptors ([Schuler et al., 2001]; [Vigot et al., 2006]). […] . Neuronal cultures and HEK293T cells were prepared as described ([Dinamarca et al., 2019]). Coverslips with hippocampal neurons (DIV 12–15) or HEK293T cells were transferred to a chamber containing a low-K^+ bath solution (in mM): 145 NaCl, 4 KCl, 5 HEPES, 5.5 D-glucose, 1 MgCl2, and 1.8 CaCl2 (pH 7.4 adjusted with NaOH). Recordings were performed at room temperature using borosilicate pipettes of 3–5 MΩ resistance tips, filled with K-gluconate-based pipette solution (in mM): 150 K-gluconate, 1.1 EGTA, 10 HEPES, 10 Tris-phosphocreatine, 0.3 NaGTP, and 4 MgATP (pH 7.2 adjusted with KOH). Upon achieving whole-cell access, cells were held in voltage-clamp mode at −70 mV (with no correction for liquid junction potential) and baclofen-induced K^+ currents were induced in a high-K^+ bath solution (in mM): 120 NaCl, 25 KCl, 5 HEPES, 5.5 D-glucose, 1 MgCl2, and 1.8 CaCl2 (pH 7.4 adjusted with NaOH). […] Schaffer collaterals were stimulated at 0.1 Hz with brief current pulses via bipolar Pt/Ir wires. Evoked EPSCs were recorded at –60 mV with a Cs^+-based intracellular solution. Baclofen and peptides were bath applied in standard ACSF at room temperature. We recorded mEPSCs in primary neuronal cultures established from embryonic (E15–17) murine hippocampus at DIV13–16 in the presence of 0.5 μM TTX at room temperature ([Dinamarca et al., 2019]). APP17 (250 nM) and (R)-baclofen (30 μM) were applied via superfusion. Template matching with pClamp 10 software (Molecular Devices) was used to detect individual mEPSCs.

[8] = tested on: mEPSCs in brain slices / cultured hippocampal neurons; conditions: cultured hippocampal neurons APP17 250 nM, ref Rice et al., 2019; cited from earlier work
Text: GBRs are composed of a GB1a or GB1b subunit with a GB2 subunit, which generates heterodimeric GB1a/2 and GB1b/2 receptors ([Pin and Bettler, 2016]). GB1a differs from GB1b by the presence of two N-terminal sushi domains (SD1/2). GB1a/2 and GB1b/2 receptors predominantly localize to pre- and postsynaptic sites, respectively ([Vigot et al., 2006]). APP and sAPP bind to SD1 of GB1a ([Schwenk et al., 2016]; [Dinamarca et al., 2019]; [Rice et al., 2019]). Synthetic APP peptides of 9 or 17 amino acid residues, termed APP9 and APP17, are sufficient for binding and inducing a stable conformation in SD ... || GB1a/2 receptors are abundant at axon terminals where they inhibit neurotransmitter release ([Vigot et al., 2006]). […] A GBR antagonist blocked the effect of APP17 on the mEPSC frequency, supporting a GBR-dependent mechanism.

[9] = tested on: eEPSCs of CA1 pyramidal neurons; assay: eEPSC amplitudes in CA1 pyramidal neurons of acute hippocampal slices; design: species or system mouse; conditions: APP17 250 nM or baclofen 20 µM, Cs^+-based intracellular solution
Experimental: (§1) GB1a/2 receptors are abundant at axon terminals where they inhibit neurotransmitter release ([Vigot et al., 2006]). […] A GBR antagonist blocked the effect of APP17 on the mEPSC frequency, supporting a GBR-dependent mechanism. […] We additionally studied whether APP17 at 250 nM influences eEPSC amplitudes in acute hippocampal slices. Postsynaptic GBR-activated K^+ currents were blocked with a Cs^+-based intracellular solution, which allowed to specifically monitor the activity of presynaptic GBRs.
(§2) Neuronal cultures and HEK293T cells were prepared as described ([Dinamarca et al., 2019]). Coverslips with hippocampal neurons (DIV 12–15) or HEK293T cells were transferred to a chamber containing a low-K^+ bath solution (in mM): 145 NaCl, 4 KCl, 5 HEPES, 5.5 D-glucose, 1 MgCl2, and 1.8 CaCl2 (pH 7.4 adjusted with NaOH). Recordings were performed at room temperature using borosilicate pipettes of 3–5 MΩ resistance tips, filled with K-gluconate-based pipette solution (in mM): 150 K-gluconate, 1.1 EGTA, 10 HEPES, 10 Tris-phosphocreatine, 0.3 NaGTP, and 4 MgATP (pH 7.2 adjusted with KOH). […] Evoked EPSCs were recorded at –60 mV with a Cs^+-based intracellular solution. […] We recorded mEPSCs in primary neuronal cultures established from embryonic (E15–17) murine hippocampus at DIV13–16 in the presence of 0.5 μM TTX at room temperature ([Dinamarca et al., 2019]). […]

[10] = tested on: mEPSCs of cultured hippocampal neurons; assay: mEPSC frequency in cultured hippocampal neurons; assay type: cell-based, mouse; conditions: baclofen 30 µM, after APP17, 0.5 μM TTX
Experimental: as §1, §2

[11] = tested on: native GBRs in mouse brain membranes; assay: [^35S]GTPγS binding in brain membrane preparations
[12] = 1 μM APP17, best-fit, different curve for each data set
[13] = Global (shared) fit, Vehicle and 1 μM APP17, one curve for all data sets
[14] = Vehicle, best-fit, different curve for each data set

T1 sequence (Q9UBS5 15-961 limits assumed): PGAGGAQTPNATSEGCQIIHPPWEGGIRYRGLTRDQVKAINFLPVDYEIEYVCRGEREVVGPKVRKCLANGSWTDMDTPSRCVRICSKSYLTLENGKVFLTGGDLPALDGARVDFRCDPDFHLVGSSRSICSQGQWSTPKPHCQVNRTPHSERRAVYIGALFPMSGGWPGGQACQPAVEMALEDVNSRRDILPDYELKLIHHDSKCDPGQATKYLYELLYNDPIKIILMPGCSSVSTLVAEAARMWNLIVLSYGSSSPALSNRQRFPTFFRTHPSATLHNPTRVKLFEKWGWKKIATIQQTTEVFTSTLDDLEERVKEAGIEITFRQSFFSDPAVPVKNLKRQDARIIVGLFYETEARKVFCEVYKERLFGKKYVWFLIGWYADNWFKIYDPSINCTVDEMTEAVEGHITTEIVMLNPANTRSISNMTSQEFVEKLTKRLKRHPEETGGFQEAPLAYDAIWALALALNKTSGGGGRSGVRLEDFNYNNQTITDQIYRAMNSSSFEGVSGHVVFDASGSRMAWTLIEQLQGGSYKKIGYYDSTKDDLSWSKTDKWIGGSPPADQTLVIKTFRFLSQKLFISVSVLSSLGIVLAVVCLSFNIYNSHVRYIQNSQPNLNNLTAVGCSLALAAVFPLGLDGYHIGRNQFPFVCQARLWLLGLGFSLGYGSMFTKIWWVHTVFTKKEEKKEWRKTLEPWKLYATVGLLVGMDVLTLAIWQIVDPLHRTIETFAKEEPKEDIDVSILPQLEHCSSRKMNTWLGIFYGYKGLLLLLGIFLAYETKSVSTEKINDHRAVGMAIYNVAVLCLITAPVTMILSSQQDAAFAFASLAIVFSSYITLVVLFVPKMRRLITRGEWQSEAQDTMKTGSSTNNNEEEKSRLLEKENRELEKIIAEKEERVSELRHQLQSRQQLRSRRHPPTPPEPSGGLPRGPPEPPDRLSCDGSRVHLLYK
T1 sequence (O75899 42-941 partner): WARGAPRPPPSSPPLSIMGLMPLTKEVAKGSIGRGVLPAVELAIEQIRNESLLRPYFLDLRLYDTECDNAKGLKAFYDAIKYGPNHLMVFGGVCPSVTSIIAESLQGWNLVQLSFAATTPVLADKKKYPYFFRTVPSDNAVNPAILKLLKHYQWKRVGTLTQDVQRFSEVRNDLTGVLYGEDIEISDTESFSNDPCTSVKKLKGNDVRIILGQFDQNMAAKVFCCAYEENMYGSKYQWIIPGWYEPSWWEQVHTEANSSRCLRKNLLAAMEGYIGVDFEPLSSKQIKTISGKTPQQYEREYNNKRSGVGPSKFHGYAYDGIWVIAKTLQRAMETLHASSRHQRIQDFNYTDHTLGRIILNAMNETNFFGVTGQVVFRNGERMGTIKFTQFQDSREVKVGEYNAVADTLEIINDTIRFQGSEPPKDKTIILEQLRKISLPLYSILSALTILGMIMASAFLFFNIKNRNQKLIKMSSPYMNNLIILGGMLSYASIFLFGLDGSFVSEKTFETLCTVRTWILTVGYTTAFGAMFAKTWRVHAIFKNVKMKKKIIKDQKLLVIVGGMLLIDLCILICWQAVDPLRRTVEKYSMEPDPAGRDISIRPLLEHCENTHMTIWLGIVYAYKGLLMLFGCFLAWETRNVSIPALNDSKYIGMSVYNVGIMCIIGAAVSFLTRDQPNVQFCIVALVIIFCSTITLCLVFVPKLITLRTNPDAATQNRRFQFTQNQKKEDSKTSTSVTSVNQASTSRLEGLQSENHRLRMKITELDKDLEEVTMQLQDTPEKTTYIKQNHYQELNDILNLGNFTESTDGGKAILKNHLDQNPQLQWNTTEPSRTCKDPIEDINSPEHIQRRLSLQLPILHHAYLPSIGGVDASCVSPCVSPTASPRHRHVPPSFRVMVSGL

Compound: Ac-DWGADTVSGDGYDAWDD-NH2 [sc-APP17]
- GABA-mediated PKA inactivation in presence of peptide (in words) (GB1a/2 receptors [1]; 10 μM peptide): GABA-mediated PKA inactivation was comparable
- effect of peptide alone on luminescence/receptor activity (in words) (GB1a/2 receptors [1]; 10 μM peptide): no agonistic, inverse agonistic, or antagonistic properties
- receptor activity with APP695 in cis (in words) (GB1a/2 receptors [1]; peptide, APP695 in cis): did not significantly alter GB1/2 receptor activity
- Fig. 2c value, 10mM GABA (GB1a/2 receptors [2]; 1 µM peptide with 10mM GABA, replicate 2): 29.41
- Fig. 2c value, 10mM GABA (GB1a/2 receptors [2]; 1 µM peptide with 10mM GABA, replicate 3): 73.18
- Fig. 2c value, 10mM GABA (GB1a/2 receptors [2]; 1 µM peptide with 10mM GABA, replicate 4): 69.99
- Fig. 2c value, 10mM GABA (GB1a/2 receptors [2]; 1 µM peptide with 10mM GABA, replicate 5): 51.73
- Fig. 2c value, 10mM GABA (GB1a/2 receptors [2]; 1 µM peptide with 10mM GABA, replicate 6): 86.53
- Fig. 2c value, Basal (GB1a/2 receptors [2]; 1 µM peptide, replicate 1): 88.34
- Fig. 2c value, Basal (GB1a/2 receptors [2]; 1 µM peptide, replicate 2): 87.73
- Fig. 2c value, Basal (GB1a/2 receptors [2]; 1 µM peptide, replicate 3): 107.5
- Fig. 2c value, Basal (GB1a/2 receptors [2]; 1 µM peptide, replicate 4): 102.7
- Fig. 2c value, Basal (GB1a/2 receptors [2]; 1 µM peptide, replicate 5): 121
- Fig. 2c value, Basal (GB1a/2 receptors [2]; 1 µM peptide, replicate 6): 65.57
- Fig. 2c value, 10mM GABA (GB1a/2 receptors [2]; 10 µM peptide with 10mM GABA, replicate 1): 53.02
- Fig. 2c value, 10mM GABA (GB1a/2 receptors [2]; 10 µM peptide with 10mM GABA, replicate 2): 53.95
- Fig. 2c value, 10mM GABA (GB1a/2 receptors [2]; 10 µM peptide with 10mM GABA, replicate 3): 60.06
- Fig. 2c value, 10mM GABA (GB1a/2 receptors [2]; 10 µM peptide with 10mM GABA, replicate 4): 60.44
- Fig. 2c value, 10mM GABA (GB1a/2 receptors [2]; 10 µM peptide with 10mM GABA, replicate 6): 23.67
- Fig. 2c value, Basal (GB1a/2 receptors [2]; 10 µM peptide, replicate 1): 90.75
- Fig. 2c value, Basal (GB1a/2 receptors [2]; 10 µM peptide, replicate 2): 69.76
- Fig. 2c value, Basal (GB1a/2 receptors [2]; 10 µM peptide, replicate 3): 95.95
- Fig. 2c value, Basal (GB1a/2 receptors [2]; 10 µM peptide, replicate 4): 91.68
- Fig. 2c value, Basal (GB1a/2 receptors [2]; 10 µM peptide, replicate 5): 104.2
- Fig. 2c value, Basal (GB1a/2 receptors [2]; 10 µM peptide, replicate 6): 90.96
- FRET in the presence of 10 mM GABA (in words) (GB1a/2 receptors [2]; 1 or 10 μM peptide + 10 mM GABA): no significant differences in FRET
- FRET, basal, peptide alone (in words) (GB1a/2 receptors [2]; 1 or 10 μM peptide without GABA): no significant changes in FRET
- intracellular Ca^2+ mobilization (in words) (GB1a/2 receptors [3]): did not increase intracellular Ca^2+
- GABA-induced Kir3 currents in presence of peptide (in words) ([4]; 5 µM GABA): nor did the peptides alter K^+ currents in the presence of 5 µM GABA
- Kir3 K^+ currents evoked by compound alone (in words) ([4]; transfected HEK293T cells): did not trigger K^+ currents
- displacement of 1 μM APP17-TMR from GB1a/2 receptors (in words) [5]: not sc-APP17 displaced 1 μM APP17-TMR from GB1a/2 receptors
- spontaneous Ca^2+ transients (in words) [6]: no significant effect compared to ACSF
- baclofen-induced K^+ currents in presence of peptide (in words) ([7]; 5 µM peptide + 5 µM baclofen): elicited currents of similar amplitudes as baclofen alone
- K^+ currents evoked by compound alone (in words) [7]: did not elicit any currents

Compound: C[C@H](NC[C@H](O)CP(=O)(O)Cc1ccccc1)c1ccc(Cl)c(Cl)c1 [CGP55845]
- mEPSC frequency (in words) [8]: reduced the inhibitory effect of APP17 on the mEPSC frequency

Compound: NCC(CC(=O)O)c1ccc(Cl)cc1 (centres unmarked) [baclofen]
- eEPSC amplitude (in words) [9]: able to reduce the amplitudes of eEPSCs
- mEPSC frequency (in words) [10]: significantly reduced mEPSC frequency
- spontaneous Ca^2+ transients (in words) [6]: reduced spontaneous Ca^2+ transients after 15 min of perfusion
- K^+ currents evoked by compound alone (in words) [7]: activation of K^+ channels by Gβγ

Compound: NCCCC(=O)O [GABA]
- Bottom [11, 12]: 0.9821
- HillSlope [11, 12]: 0.6558
- Span [11, 12]: 0.4027
- Top [11, 12]: 1.385
- Basal ([11]; GABA curve fit, vehicle, n=9): 0.99
- EMax ([11]; GABA, vehicle, n=9): 1.37
- Bottom [11, 13]: 0.9874
- HillSlope [11, 13]: 0.6587
- Span [11, 13]: 0.3874
- Top [11, 13]: 1.375
- Bottom [11, 14]: 0.9919
- HillSlope [11, 14]: 0.6543
- Span [11, 14]: 0.3771
- Top [11, 14]: 1.369
